The target of assay [1] is NMDA receptors. As to the kind of experiment: [3H]CGP-39653 saturation binding, spinal cord membranes. The following applies: normal rat whole spinal cord; one-site binding. Here is the method:
(§1) Changes in NMDA receptor levels were determined at three weeks following nerve injury (one week following transplantation), as a marked distinction in responses to sensory stimuli between adrenal medullary and control transplanted animals can be made at this time point. […] [^3 H]CGP-39653 (D,L-(E)-2-amino-4-propyl-5-phosphono-3-pentenoate), a selective high-affinity competitive antagonist at NMDA receptors, was used to label the binding sites. In preliminary experiments, binding characteristics of this ligand were determined in the rat spinal cord. Saturation assays were performed on whole spinal cord tissue, and the results compared to those obtained in cortical membranes. NMDA binding sites were analyzed using previously described procedures with slight modification [M. A. Sills et al., Eur. J. Pharmacol., 192:19-24 (1991)]. Animals were decapitated and the spinal cords were rapidly extruded with saline pressure. […] This volume of tissue corresponded to approximately 110 μg of protein as determined using the Bradford method (BioRad, Richmond, Calif.). […] Nonspecific binding was determined in parallel tubes containing 100 mM L-glutamiate. […] Radioactivity was counted with a Beckman 3270 scintillation counter at 48-52% efficiency. Estimates of binding parameters were determined using the program LIGAND [P. J. Munson and D. Rodbard, Anal. Biochem., 197:220-239 (1980)].

Assay [2] has as its target NMDA receptors. Description: [3H]CGP-39653 saturation binding, cortical membranes. Conditions: normal rat cortex; one-site binding. The method, then:
as §1

The subject of assay [3] is NMDA receptor. As to the kind of experiment: NMDA-induced mechanical hyperalgesia (Randall-Selitto test) in rats with spinal subarachnoid transplants. The format is in vivo, rat. Conditions: for effect of antagonist pretreatment on NMDA dose-response curve, noxious mechanical stimuli, compared to saline pretreatment: adrenal medullary transplanted animals, s.c. 20 min prior to NMDA (2.5, 5.0, 10.0 nmol), naloxone 2.0 mg/kg, phentolamine 10.0 mg/kg. The method, then: Experimental procedures were approved and carried out in accordance the Guidelines of the Animal Care Committee, University of Illinois at Chicago. Male Sprague-Dawley rats weighing 325-375 g (Sasco, Madison, Wis.) at the beginning of the study were used as both graft donors and recipients. Graft recipients were anesthetized (Nembutal, 40 mg/kg, i.p., supplemented as necessary) and implanted with intrathecal catheters according to methods described by Yaksh and Rudy [T. L. Yaksh and T. A. Rudy, Physiol. Behav., 17:1031-1036 (1976)]. Catheters were made of PE10 tubing with a knot sealed with dental acrylic at 7.5 cm. The catheters were threaded through a slit in the atlanto-occipital membrane to the lumbar spinal subarachnoid space, and the free ends were anchored to the skull using cyanoacrylate. Donor adrenal medullary tissue was dissected from cortical tissue and cut into small pieces (<0.5 cm^3). Adrenal medullary tissue from two adrenal glands was used as this amount was shown in previous studies to produce significant antinociception using several behavioral tests [A. T. Hama and J. Sagen, Pain, 52:223-231 (1993); J. Sagen et al., Pain, 42:69-79 (1990); H. Wang and J. Sagen, J. Neural Transplant. Plastic., 5:49-64 (1994)]. Control animals received equal volumes of striated muscle tissue from donors. […]
(§2) Animals were allowed to recover from surgical procedures for two weeks prior to commencement of behavioral testing. Responses to noxious and innocuous stimuli were determined using three tests sequentially: the Hargreaves model for thermal hyperalgesia [K. M. Hargreaves et al., Pain, 32:223-231 (1988)], the Randall-Selitto test for mechanical hyperalgesia, and von Frey thresholds for tactile allodynia. […] The apparatus automatically terminates at a scale reading of 25 (=1000 g). […]
(§3) The first group of animals was used in order to determine the time course and dose-responsiveness to intrathecally injected NMDA. […] Baseline responses to all three tests were assessed at the beginning of each test day prior to drug injection. […]

Assay [4] relates to NMDA receptor. As to the kind of experiment: NMDA-induced thermal hyperalgesia (Hargreaves paw withdrawal latency) in rats with spinal subarachnoid transplants. The format is in vivo, rat. Conditions: for effect of antagonist pretreatment on NMDA dose-response curve, noxious thermal stimuli, compared to saline pretreatment: adrenal medullary transplanted animals, s.c. 20 min prior to NMDA (2.5, 5.0, 10.0 nmol), naloxone 2.0 mg/kg, phentolamine 10.0 mg/kg. Here is the method:
Experimental procedures were approved and carried out in accordance the Guidelines of the Animal Care Committee, University of Illinois at Chicago. Male Sprague-Dawley rats weighing 325-375 g (Sasco, Madison, Wis.) at the beginning of the study were used as both graft donors and recipients. Graft recipients were anesthetized (Nembutal, 40 mg/kg, i.p., supplemented as necessary) and implanted with intrathecal catheters according to methods described by Yaksh and Rudy [T. L. Yaksh and T. A. Rudy, Physiol. Behav., 17:1031-1036 (1976)]. Catheters were made of PE10 tubing with a knot sealed with dental acrylic at 7.5 cm. The catheters were threaded through a slit in the atlanto-occipital membrane to the lumbar spinal subarachnoid space, and the free ends were anchored to the skull using cyanoacrylate. Donor adrenal medullary tissue was dissected from cortical tissue and cut into small pieces (<0.5 cm^3). Adrenal medullary tissue from two adrenal glands was used as this amount was shown in previous studies to produce significant antinociception using several behavioral tests [A. T. Hama and J. Sagen, Pain, 52:223-231 (1993); J. Sagen et al., Pain, 42:69-79 (1990); H. Wang and J. Sagen, J. Neural Transplant. Plastic., 5:49-64 (1994)]. Control animals received equal volumes of striated muscle tissue from donors. Graft tissue was implanted in the spinal subarachnoid space via laminectomy at the level of the lumbar enlargement as described previously [J. Sagen et al., Brain Res., 384:189-194 (1986); J. Sagen et al., Pain, 42:69-79 (1990)]. Following surgical procedures, musculature was sutured (4-0 silk), and the skin closed with wound clips. Animals were housed individually and allowed food and water ad libitum.
as §2, with “allodynia. To assess response to a noxious thermal stimulus, rats were placed on an elevated glass floor beneath an inverted clear plastic cage, and a radiant heat source beneath the glass was aimed at the plantar surface of the hindpaw. The onset of light activated a timer which was terminated by a hindpaw withdrawal response.” for “allodynia.”
as §3

In assay [5] the test system is NMDA receptor. As to the kind of experiment: NMDA-induced tactile allodynia (von Frey thresholds) in rats with spinal subarachnoid transplants. The format is in vivo, rat. Conditions: adrenal medullary transplanted animals; s.c. 20 min prior to NMDA (2.5, 5.0, 10.0 nmol); naloxone 2.0 mg/kg, phentolamine 10.0 mg/kg. The method, then: Experimental procedures were approved and carried out in accordance the Guidelines of the Animal Care Committee, University of Illinois at Chicago. Male Sprague-Dawley rats weighing 325-375 g (Sasco, Madison, Wis.) at the beginning of the study were used as both graft donors and recipients. Graft recipients were anesthetized (Nembutal, 40 mg/kg, i.p., supplemented as necessary) and implanted with intrathecal catheters according to methods described by Yaksh and Rudy [T. L. Yaksh and T. A. Rudy, Physiol. Behav., 17:1031-1036 (1976)]. Catheters were made of PE10 tubing with a knot sealed with dental acrylic at 7.5 cm. […]
as §2, §3

As to `CCC/C(=C\C(N)C(=O)O)CP(=O)(O)O` (racemic) [[^3 H]CGP-39653, D,L-(E)-2-amino-4-propyl-5-phosphono-3-pentenoate], the figures for the Kd at NMDA receptors [1] and at NMDA receptors [2] were 12.9 ± 1.8 nM and 15.4 nM, respectively.
On to `CN[C@H](CC(=O)O)C(=O)O` [NMDA, N-methyl-D-aspartate], for which the “time of peak effect, mechanical hyperalgesia” value with NMDA receptor [3] (intrathecal NMDA) came to 30 min. For the same molecule, the “time to significant thermal hyperalgesia in control animals” value in the assay with NMDA receptor [4] (5 nmol NMDA i.t., control transplanted animals, P<0.05) is ≤ 5 min. Moreover, in the assay with NMDA receptor [4] (intrathecally administered NMDA, all cases), the “time of peak effect, thermal hyperalgesia” value is recorded as 30 min.
Turning to `C=CCN1CC[C@]23c4c5ccc(O)c4O[C@H]2C(=O)CC[C@@]3(O)[C@H]1C5` [naloxone], in the assay with NMDA receptor [3], the “effect of antagonist pretreatment on NMDA dose-response curve, noxious mechanical stimuli, compared to saline pretreatment” value was “no effect”. Besides, in the assay on NMDA receptor [5], the “effect of antagonist pretreatment on NMDA dose-response curve, innocuous tactile stimuli, compared to saline pretreatment” value is on record as “no effect”. In addition, the “effect of antagonist pretreatment on NMDA dose-response curve, noxious thermal stimuli, compared to saline pretreatment” value with NMDA receptor [4] is listed as “no effect”.
Take `Cc1ccc(N(CC2=NCCN2)c2cccc(O)c2)cc1` [phentolamine]: the “effect of antagonist pretreatment on NMDA dose-response curve, noxious mechanical stimuli, compared to saline pretreatment” value in the assay on NMDA receptor [3] is “significantly shifted the dose-response curves downward”. Also, in the assay with NMDA receptor [5], the “effect of antagonist pretreatment on NMDA dose-response curve, innocuous tactile stimuli, compared to saline pretreatment” value is on record as “significantly shifted the dose-response curves downward”. Besides, in the assay with NMDA receptor [4], the “effect of antagonist pretreatment on NMDA dose-response curve, noxious thermal stimuli, compared to saline pretreatment” value was “significantly shifted the dose-response curves downward”.

Source of the values: patent publication US5935606A, “Reversing excitotoxic CNS damage by cellular implantation” (priority 1995, dated 1999).
